Consider 1 cell line from the supplement of paper PMC10307832.

Test in all cases: relative viability (nuclei count vs DMSO), 5 days (fraction); higher = more cells survive
Compound in test [1]: C[C@]1(c2nc3c(C(N)=O)cccc3[nH]2)CCCN1 [Veliparib] + CC1(C)CCC(c2ccc(Cl)cc2)=C(CN2CCN(c3ccc(C(=O)NS(=O)(=O)c4ccc(N[C@H](CCN5CCOCC5)CSc5ccccc5)c(S(=O)(=O)C(F)(F)F)c4)cc3)CC2)C1 [Navitoclax] (partner 0.5 µM)
In short, it runs like this:
(§1)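 Relative viability divides the nuclei count in treated wells by that in vehicle wells. Lung cancer cell lines were seeded in 1536-well plates, dosed by pin tool the next day, and fixed and stained after 5 days in one step with final 0.05% Triton X-100, 1% formaldehyde and 1 ug/ml Hoechst. Dosing was a single drug or a fixed anchor-drug dose plus five library-drug doses (not always all listed) in √10 steps, and values are medians of duplicate plates imaged at 4×.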

Compound in test [2]: C[C@]1(c2nc3c(C(N)=O)cccc3[nH]2)CCCN1 [Veliparib] + CC(=O)Nc1cccc(-n2c(=O)n(C3CC3)c(=O)c3c(Nc4ccc(I)cc4F)n(C)c(=O)c(C)c32)c1 [Trametinib] (partner 0.02 µM)
The method in brief:
as §1

Compound in test [3]: COC1=CC=C(C=C1)CN2C=CC3=C2C=C(C=C3)C(=O)NO + Cc1nc(Nc2ncc(C(=O)Nc3c(C)cccc3Cl)s2)cc(N2CCN(CCO)CC2)n1 [Dasatinib] (partner 0.075 µM)
In short, it runs like this:
as §1

Compound in test [4]: C[C@]1(c2nc3c(C(N)=O)cccc3[nH]2)CCCN1 [Veliparib] + COc1cccc2cc(-c3nc([C@H]4CC[C@H](C(=O)O)CC4)n4ncnc(N)c34)[nH]c12 [OSI-027] (partner 0.5 µM)
In short, it runs like this: as §1

For the cell line SW 1573, the relative viability in test [1] (first compound 0.02 µM) turned out to be 1.02; in test [1] (first compound 0.06325 µM), 0.934; in test [1] (first compound 0.2 µM), 1.1; in test [1] (first compound 0.6325 µM), 0.736; in test [1] (first compound 2 µM), 0.93; in test [2] (first compound 0.06325 µM), 0.474. The relative viability in test [2] (first compound 0.2 µM) was determined as 0.52; in test [2] (first compound 0.6325 µM) it was 0.513; in test [2] (first compound 2 µM), 0.548; in test [3] (first compound 0.253 µM), 0.545; in test [3] (first compound 0.8 µM), 0.702; in test [3] (first compound 2.53 µM), 0.561. Also, the relative viability in test [3] (first compound 8 µM) stood at 0.322; in test [4] (first compound 0.06325 µM) it was 0.558; in test [4] (first compound 0.2 µM) it was 0.597; in test [4] (first compound 0.6325 µM), 0.521; in test [4] (first compound 2 µM), 0.675.
